Here are results for one molecule from patent publication US12540154B2, “Glucosamine derivative nanoparticle and preparating method and use thereof” (CPC Corporation, TAIWAN, priority 2023, dated 2026).

The data set deals with HaCaT cells. Kind of data set: Cell cytotoxicity test (CCK-8). Format: cell-based, human. The settings on record: 125-1,000 ppm, 24 hours, CCK-8, FIG. 6. On the procedure: HaCaT cells are seeded into a 96 well plate at 10^5 cells/well. After attachment overnight, remove culture medium. The frozen peptide (KTTKS(SEQ ID NO: 1), CRGDS(SEQ ID NO: 2), and RRRRRR(SEQ ID NO: 3)) and the glucosamine derivative nanoparticles are respectively dissolved in serum-free medium (SFM) again (final concentration 1,000 ppm). Use SFM to carry out serial dilution and get concentrations of 500 ppm, 250 ppm, and 125 ppm. Then add 100 μl samples with different concentrations into the well plate (repeat four times and a group of samples added with SFM used as control group). After being cultured for 24 hours, remove culture medium and add 10 μl CCK-8 and 100 μl PBS into each of the wells. Then react at 37° C. for 2-3 hours and read absorbance at 450 nm. Cell viability is defined as a percentage of the absorbance of the respective test groups relative to the absorbance of the control group while the cell viability of the control group is set as 100%.

On to `N[C@H]1C(O)O[C@H](CO)[C@@H](O)[C@@H]1O` (stereo partly shown) [glucosamine], for which the “cell viability trend with concentration” value is on record as “reduced a bit along with the increasing glucosamine concentration”.
